In patent US20190210996A1, “NOVEL COMPOUNDS” (GLAXOSMITHKLINE INTELLECTUAL PROPERTY DEVELOPMENT LIMITED, priority 2016, published 2019):

Experiments:
Format in all cases: cell-based
MAPK9 = target: T1, MAPK9 (Homo sapiens, UniProt P45984); assay: Expression proteomics in THP-1 cells: MAPK9 protein level; conditions: MAPK9, THP-1 cells
T1 construct: endogenous in cells; host or cells: THP-1
Description: (§1) THP-1 cells were seeded at a concentration of 3×10^6 cells in T175 flasks with 60 mL growth medium (RPMI1640+10% FBS). […] of a 10× compound solution prepared in growth medium (DMSO), CEREBLON_PROTAC) was added and the cells were treated for the indicated time points (6 or 24 h) at 37° C., 5% CO2. For harvesting the cells were collected into falcon tubes on ice, centrifuged and washed twice in cold PBS (Life technologies). After the last washing step the supernatant was removed and the pellets were snap-frozen in liquid N2 and stored at −80° C. and lysed in 2% SDS for 3 min at 95° C. in a thermomixer (Thermo Fisher Scientific), followed by digestion of DNA with Benzonase at 37° C. for 1.5 h. Lysate was cleared by centrifugation an protein concentration in supernatant was determined by BCA assay.
(§2) Leukemia 25, 89-100 (2011).
(§3) Samples were dried in vacuo and resuspended in 0.05% trifluoroacetic acid in water. Of the sample, 50% was injected into an Ultimate3000 nanoRLSC (Dionex, Sunnyvale, Calif.) coupled to a Q Exactive HF (Thermo Fisher Scientific). Peptides were trapped on a 5 mm×300 μm C18 column (Pepmap100, 5 μm, 300 Å, Thermo Fisher Scientific) in water with 0.05% TFA at 60° C. Separation was performed on custom 50 cm×[…] (ID) reversed-phase columns (Reprosil) at 55° C. Gradient elution was performed from 2% acetonitrile to 40% acetonitrile in 0.1% formic acid and 3.5% DMSO over 2 hours. Samples were online injected into Q-Exactive HF mass spectrometers operating with a data-dependent top 10 method. MS spectra were acquired by using 60.000 resolution and an ion target of 3×10^6. Higher energy collisional dissociation (HCD) scans were performed with 35% NCE at 30.000 resolution (at m/z 200), and the ion target settings was set to 2×10^5 so as to avoid coalescence (Werner, T. et al. Ion Coalescence of Neutron Encoded TMT 10-Plex Reporter Ions. Anal. Chem. 86, 3594-3601 (2014).
(§4) The first search was performed with 30 parts per million mass tolerance for peptide precursors and 30 mD (HCD) mass tolerance for fragment ions followed by a final search using recalibrated data with a 10 parts per million mass tolerance for peptide precursors and 20 mD (HCD) mass tolerance for fragment ions. Carbamidomethylation of cysteine residues and TMT modification of lysine residues were set as fixed modifications and methionine oxidation, and N-terminal acetylation of proteins and TMT modification of peptide N-termini were set as variable modifications. […]
(§5) Nat Biotech 29, 255-265 (2011). this measure is referred to as ion area Savitski, M. M. et al. Delayed Fragmentation and Optimized Isolation Width Settings for Improvement of Protein Identification and Accuracy of Isobaric Mass Tag Quantification on Orbitrap-Type Mass Spectrometers. […]

IRAK3 = target: T2, IRAK3 (Homo sapiens, UniProt Q9Y616); assay: Expression proteomics in THP-1 cells: IRAK3 protein level; conditions: IRAK3, THP-1 cells
T2 construct: endogenous in cells; host or cells: THP-1
T2 sequence (Q9Y616 1-596): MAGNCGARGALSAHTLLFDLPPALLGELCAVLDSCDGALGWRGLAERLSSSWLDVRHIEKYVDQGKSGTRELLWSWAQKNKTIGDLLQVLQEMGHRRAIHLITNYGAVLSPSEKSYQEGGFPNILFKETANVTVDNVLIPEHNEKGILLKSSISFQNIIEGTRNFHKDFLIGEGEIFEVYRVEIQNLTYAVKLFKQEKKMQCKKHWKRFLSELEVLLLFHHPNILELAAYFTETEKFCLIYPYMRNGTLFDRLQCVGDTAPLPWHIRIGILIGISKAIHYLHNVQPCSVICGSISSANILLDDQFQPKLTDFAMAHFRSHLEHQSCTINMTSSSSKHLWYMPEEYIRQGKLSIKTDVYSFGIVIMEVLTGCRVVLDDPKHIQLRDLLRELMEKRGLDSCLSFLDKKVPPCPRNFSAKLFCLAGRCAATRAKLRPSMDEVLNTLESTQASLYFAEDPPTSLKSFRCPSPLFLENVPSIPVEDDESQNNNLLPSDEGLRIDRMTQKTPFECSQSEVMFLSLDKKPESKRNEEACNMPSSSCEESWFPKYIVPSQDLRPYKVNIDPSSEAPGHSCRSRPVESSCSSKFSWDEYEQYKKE
Description: as §1, §2, §3, §4, §5

AAK1 = target: T3, AAK1 (Homo sapiens, UniProt Q2M2I8); assay: Expression proteomics in THP-1 cells: AAK1 protein level; conditions: AAK1, THP-1 cells
T3 construct: endogenous in cells; host or cells: THP-1
Description: as §1, §2, §3, §4, §5

RPS6KA3 = target: T4, RPS6KA3 (Homo sapiens, UniProt P51812); assay: Expression proteomics in THP-1 cells: RPS6KA3 protein level; conditions: RPS6KA3, THP-1 cells
T4 construct: endogenous in cells; host or cells: THP-1
Description: as §1, §2, §3, §4, §5

T4 sequence (P51812 whole entry): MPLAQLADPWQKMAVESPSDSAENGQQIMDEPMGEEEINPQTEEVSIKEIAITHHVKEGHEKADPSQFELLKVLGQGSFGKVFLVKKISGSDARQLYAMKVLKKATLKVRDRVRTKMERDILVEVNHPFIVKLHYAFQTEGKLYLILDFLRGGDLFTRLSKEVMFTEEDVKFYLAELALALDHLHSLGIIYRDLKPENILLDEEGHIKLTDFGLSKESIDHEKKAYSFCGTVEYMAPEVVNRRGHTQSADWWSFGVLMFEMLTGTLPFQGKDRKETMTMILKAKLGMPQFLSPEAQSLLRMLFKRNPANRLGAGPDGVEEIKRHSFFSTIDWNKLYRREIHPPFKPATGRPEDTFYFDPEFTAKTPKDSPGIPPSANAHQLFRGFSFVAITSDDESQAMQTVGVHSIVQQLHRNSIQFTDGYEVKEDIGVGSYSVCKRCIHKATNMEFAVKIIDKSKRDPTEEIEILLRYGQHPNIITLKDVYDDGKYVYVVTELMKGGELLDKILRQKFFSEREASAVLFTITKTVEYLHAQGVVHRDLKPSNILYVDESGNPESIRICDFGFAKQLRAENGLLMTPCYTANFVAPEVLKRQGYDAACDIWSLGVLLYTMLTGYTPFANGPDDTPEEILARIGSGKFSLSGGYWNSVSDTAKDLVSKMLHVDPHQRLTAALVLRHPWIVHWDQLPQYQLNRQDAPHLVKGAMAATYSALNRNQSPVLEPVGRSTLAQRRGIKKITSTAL
T3 sequence (Q2M2I8 whole entry): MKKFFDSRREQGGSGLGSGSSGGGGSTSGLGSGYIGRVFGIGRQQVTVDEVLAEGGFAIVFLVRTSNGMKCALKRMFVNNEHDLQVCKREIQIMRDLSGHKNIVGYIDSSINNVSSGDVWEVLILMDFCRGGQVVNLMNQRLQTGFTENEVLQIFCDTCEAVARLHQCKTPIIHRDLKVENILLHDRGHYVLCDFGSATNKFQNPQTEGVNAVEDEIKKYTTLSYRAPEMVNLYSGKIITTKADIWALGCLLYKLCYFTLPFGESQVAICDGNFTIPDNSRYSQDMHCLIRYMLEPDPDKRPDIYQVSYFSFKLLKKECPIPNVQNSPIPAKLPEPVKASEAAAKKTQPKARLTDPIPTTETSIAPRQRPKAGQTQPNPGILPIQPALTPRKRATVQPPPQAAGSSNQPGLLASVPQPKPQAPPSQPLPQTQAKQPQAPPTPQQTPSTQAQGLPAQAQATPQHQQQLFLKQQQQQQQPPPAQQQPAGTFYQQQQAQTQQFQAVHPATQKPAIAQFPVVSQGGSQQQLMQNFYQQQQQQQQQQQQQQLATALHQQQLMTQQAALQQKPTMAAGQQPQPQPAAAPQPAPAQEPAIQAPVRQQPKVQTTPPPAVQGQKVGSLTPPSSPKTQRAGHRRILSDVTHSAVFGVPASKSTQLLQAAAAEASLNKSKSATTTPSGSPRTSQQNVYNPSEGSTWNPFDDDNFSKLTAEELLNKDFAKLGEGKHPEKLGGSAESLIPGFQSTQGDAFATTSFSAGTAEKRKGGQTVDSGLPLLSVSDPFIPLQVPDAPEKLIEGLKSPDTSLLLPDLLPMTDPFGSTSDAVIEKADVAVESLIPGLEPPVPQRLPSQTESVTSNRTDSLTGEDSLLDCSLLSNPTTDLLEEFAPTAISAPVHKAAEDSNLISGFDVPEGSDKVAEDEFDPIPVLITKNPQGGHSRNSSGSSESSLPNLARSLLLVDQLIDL
T1 sequence (P45984 whole entry): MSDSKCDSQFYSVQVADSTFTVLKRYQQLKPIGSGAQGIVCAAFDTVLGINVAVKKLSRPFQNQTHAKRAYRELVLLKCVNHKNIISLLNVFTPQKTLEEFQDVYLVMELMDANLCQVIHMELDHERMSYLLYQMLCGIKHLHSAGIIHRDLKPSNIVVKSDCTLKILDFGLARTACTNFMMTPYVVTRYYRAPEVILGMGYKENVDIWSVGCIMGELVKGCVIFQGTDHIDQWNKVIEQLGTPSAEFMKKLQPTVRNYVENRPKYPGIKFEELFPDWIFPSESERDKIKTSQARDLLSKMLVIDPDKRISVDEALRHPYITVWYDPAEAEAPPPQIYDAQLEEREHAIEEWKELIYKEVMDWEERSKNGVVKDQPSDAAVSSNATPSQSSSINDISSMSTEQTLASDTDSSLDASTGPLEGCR

log2 rel. fc. to vehicle control (MAPK9; 24 h 0.1 μM, n = 1): −0.69
log2 rel. fc. to vehicle control (MAPK9; 24 h 0.1 μM, n = 2): −0.98
log2 rel. fc. to vehicle control (MAPK9; 24 h 1 μM, n = 1): −1.83
log2 rel. fc. to vehicle control (MAPK9; 24 h 1 μM, n = 2): −1.75
log2 rel. fc. to vehicle control (IRAK3; 24 h 0.1 μM, n = 1): −2.25
log2 rel. fc. to vehicle control (IRAK3; 24 h 0.1 μM, n = 2): −1.82
log2 rel. fc. to vehicle control (IRAK3; 24 h 1 μM, n = 1): −1.65
log2 rel. fc. to vehicle control (IRAK3; 24 h 1 μM, n = 2): −1.86
log2 rel. fc. to vehicle control (AAK1; 24 h 0.1 μM, n = 1): −2.34
log2 rel. fc. to vehicle control (AAK1; 24 h 0.1 μM, n = 2): −2.12
log2 rel. fc. to vehicle control (AAK1; 24 h 1 μM, n = 1): −2.42
log2 rel. fc. to vehicle control (AAK1; 24 h 1 μM, n = 2): −2.56
log2 rel. fc. to vehicle control (RPS6KA3; 24 h 0.1 μM, n = 1): −0.74
log2 rel. fc. to vehicle control (RPS6KA3; 24 h 0.1 μM, n = 2): −0.72
log2 rel. fc. to vehicle control (RPS6KA3; 24 h 1 μM, n = 1): −1.12
log2 rel. fc. to vehicle control (RPS6KA3; 24 h 1 μM, n = 2): −1.11
Structure (SMILES): CNC(=O)c1ccccc1Nc1nc(Nc2ccc(N3CCN(CCOCCOCCOCCOCC(=O)Nc4cccc5c4CN(C4CCC(=O)NC4=O)C5=O)CC3)cc2)ncc1Cl.O=CO (stereo not shown) [CEREBLON_PROTAC, 14-(4-(4-((5-Chloro-4-((2-(methylcarbamoyl)phenyl)amino)pyrimidin-2-yl)amino)phenyl)piperazin-1-yl)-N-(2-(2,6-dioxopiperidin-3-yl)-1-oxoisoindolin-4-yl)-3,6,9,12-tetraoxatetradecan-1-amide formate]
